Assay results published in article PMC6273072, “Identification of a New Morpholine Scaffold as a P2Y12 Receptor Antagonist” (Molecules, 2016).
Values joined by “and” are separate entries in the source; they are usually repeats but may differ in a detail not shown here. Equal values may be shown once.

Legend:
human P2Y1 receptor = target: T1, human P2Y1 receptor (Homo sapiens, UniProt P47900); experiment: P2Y1-mediated Ca2+ mobilization in NIH3T3-P2Y1 + Gq cells (FLIPR); format: cell-based; details: for inhibitory effect at P2Y1 receptor, in words: up to 100 μM
T1 construct: expressed in transfected cells
T1 sequence (P47900 whole entry): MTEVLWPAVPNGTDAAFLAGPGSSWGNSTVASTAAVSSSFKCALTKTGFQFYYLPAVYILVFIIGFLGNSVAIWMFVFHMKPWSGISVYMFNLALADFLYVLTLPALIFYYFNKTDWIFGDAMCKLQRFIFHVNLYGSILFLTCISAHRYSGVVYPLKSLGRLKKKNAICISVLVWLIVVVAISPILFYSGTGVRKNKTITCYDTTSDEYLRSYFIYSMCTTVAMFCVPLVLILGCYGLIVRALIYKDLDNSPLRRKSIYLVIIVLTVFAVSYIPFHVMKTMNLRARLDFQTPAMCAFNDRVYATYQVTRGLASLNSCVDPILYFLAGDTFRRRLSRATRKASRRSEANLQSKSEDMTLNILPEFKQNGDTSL
Description: Intracellular Ca^2+ mobilization was analyzed using the FLIPR 5 assay kit as previously described. Briefly, pDisplay-human P2Y1 DNA clone and pcDNA-Gq DNA clone were stably expressed in NIH3T3 cells. NIH3T3-P2Y1 + Gq cells (3 × 10^5 cells/mL) were seeded in a 96-well plate and allowed to adhere overnight. An equal volume of FLIPR 5 assay kit loading buffer (Molecular Devices) was added directly to the culture medium for 1 h at room temperature, followed by 20-min incubation after adding the test compounds. Changes in intracellular Ca^2+ were measured with a FlexStation II scanning fluorometer (Molecular Devices).

[1] = tested on: ADP-induced platelet aggregation; experiment: Inhibition of ADP-induced platelet aggregation, 96-well light transmission aggregometry; format: cell-based, human; details: for IC50: 20 μM ADP; for effect of pre-incubation / time on inhibition of ADP-induced platelet aggregation, in words: data not shown
Description: Platelets were isolated from 400 mL whole blood containing 56 mL of CPDA-1 anticoagulant purchased from Chung-Nam Blood Center (Daejeon, South Korea) by centrifugation at 260× g for 5 min. The resultant platelet-rich plasma was centrifuged at 370× g for 6 min, and the platelet pellet (10^9/mL) was resuspended in 45 mL plasma and stabilized by agitation for 1 h at 22 °C in blood reservoir. The product was used for experiments within 24 h. Platelet concentrate (PC) was transferred to a new 50-mL Falcon tube and the number of platelets was counted using the ABC Vet blood counter (ABX Diagnostics, Montpellier, France). A 30-mL volume of PCs from the same donor was centrifuged at 1500× g for 10 min at room temperature to obtain platelet-poor plasma (PPP). The platelet count was adjusted to 3–4 × 10^8/mL by diluting with PPP.
Inhibition of ADP-induced aggregation was assessed in a Costar 96-well flat-bottom plate (Sigma-Aldrich, St. Louis, MO, USA) at room temperature. A 188-µL volume of the diluted platelet was added to each well of the plate along with 2 µL of test compound dissolved in dimethyl sulfoxide (DMSO). The reagents were mixed by placing the plate on a shaker at 1050 rpm for 1 min. A 10-µL volume of 400 μM ADP (final concentration: 20 μM) was added to the wells, and after additional shaking at room temperature for 3 min, the absorption of the samples was read at 595 nm on a Softmax microplate reader (Molecular Devices, Sunnyvale, CA, USA). A dose-response curve was generated using serial dilutions of ADP by adding the vehicle DMSO instead of antagonists in order to calculate the half-maximal effective concentration (EC50) of ADP. Inhibition of aggregation was determined as the increase in absorption at 595 nm after 3 min of incubation relative to absorption values of control preparations (0 and 20 μM ADP without antagonists). Sigmoidal dose-response curves and half-maximal inhibitory concentration (IC50) were derived by non-linear regression analysis using Prism 5.01 software (GraphPad, San Diego, CA, USA).

rhP2Y12 receptor [2] = target: T2, rhP2Y12 receptor (Homo sapiens, UniProt Q9H244); experiment: rhP2Y12 receptor binding assay with [3H]ADP (HEK293T membranes); details: for IC50: 3 nM [3H]ADP, HEK293T-rhP2Y12 membranes
T2 construct: expressed in transfected cells
T2 sequence (Q9H244 whole entry): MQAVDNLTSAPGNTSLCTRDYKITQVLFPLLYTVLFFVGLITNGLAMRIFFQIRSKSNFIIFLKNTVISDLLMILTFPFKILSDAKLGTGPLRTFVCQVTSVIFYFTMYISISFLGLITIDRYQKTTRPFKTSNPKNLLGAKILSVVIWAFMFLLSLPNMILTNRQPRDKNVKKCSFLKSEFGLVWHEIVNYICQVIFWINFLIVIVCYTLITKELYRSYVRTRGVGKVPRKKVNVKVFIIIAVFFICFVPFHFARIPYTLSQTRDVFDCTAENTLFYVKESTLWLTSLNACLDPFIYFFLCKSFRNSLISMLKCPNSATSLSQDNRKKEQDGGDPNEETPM
Description: (§1) The pDisplay-human P2Y12 DNA clone and pDisplay-human P2Y13 DNA clone were stably expressed in HEK293T and COS-7 cells, respectively; recombinant human (rh)P2Y12- and rhP2Y13-expressing cells were resuspended in hypotonic buffer consisting of 10 mM HEPES, 10 mM NaCl, 1 mM EDTA, 1 mM EGTA (pH 7.4), and protease inhibitor cocktail. Following 15-min incubation on ice, cells were homogenized on ice using a glass/teflon homogenizer (1000 rpm, 10 strokes). The homogenate was centrifuged at 500 × g for 15 min and the supernatant was centrifuged at 100,000× g for 30 min. The membrane pellet was adjusted to 1 mg/mL with membrane buffer consisting of 10 mM HEPES, 5 mM KCl, and 130 mM NaCl (pH 7.4) and stored at −80 °C. A 100-μL volume of 0.2 mg/mL membrane protein was added to each well of a 96-well plate along with 25 μL of test compound and [3H]2-MeSADP or [3H]ADP for a total reaction volume of 0.15 mL/well. The plate was incubated for 1 h at room temperature. The reaction was terminated by passing the solution through a GF/B filter presoaked with 0.1% polyethyleneimine using a 96-well cell harvester. […] Radioactivity of the P2Y12 receptor or P2Y13 receptor bound to the membrane were measured using a scintillation TopCount instrument (PerkinElmer, Boston, MA, USA). […] Percent inhibition of binding was calculated as follows: (100—(specific binding in the presence of test material/specific binding in the absence of test material × 100)).

rhP2Y12 receptor [3] = target: T2, rhP2Y12 receptor; experiment: rhP2Y12 receptor binding assay with [3H]-2-MeSADP (HEK293T membranes); details: for IC50: 1 nM [3H]-2-MeSADP, HEK293T-rhP2Y12 membranes
Description: as §1

rhP2Y13 receptor = target: T3, rhP2Y13 receptor (Homo sapiens, UniProt Q9BPV8); experiment: rhP2Y13 receptor [3H]2-MeSADP binding assay (COS-7 membranes)
T3 construct: expressed in transfected cells
T3 sequence (Q9BPV8 1-354): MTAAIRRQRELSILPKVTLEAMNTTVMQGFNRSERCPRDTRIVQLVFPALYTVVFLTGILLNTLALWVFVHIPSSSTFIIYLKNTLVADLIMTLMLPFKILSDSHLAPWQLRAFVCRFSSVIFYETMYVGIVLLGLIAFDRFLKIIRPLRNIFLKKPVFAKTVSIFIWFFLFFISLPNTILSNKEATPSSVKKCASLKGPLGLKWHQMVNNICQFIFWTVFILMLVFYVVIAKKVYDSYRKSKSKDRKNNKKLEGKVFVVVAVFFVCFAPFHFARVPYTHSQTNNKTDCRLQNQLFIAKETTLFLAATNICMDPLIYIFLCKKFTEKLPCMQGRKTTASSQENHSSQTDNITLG
Description: as §1

[4] = design: method as in PMID 25065553; details: side effect of ticagrelor; cited from earlier work
[5] = read-out: IC50 vs. [3H]-2-MeSADP
[6] = Homo sapiens, Platelet, 96-well plate

IC50 (rhP2Y12 receptor [2]; read-out: IC50 vs. [3H]ADP)	IC50 (rhP2Y12 receptor [3]; [5]) [µM]	IC50 [1, 6] [µM]	Compound	also measured
–	–	–	2-methylthioadenosine 5′-monophosphate [Compound 2-MeSAMP, reference compound]	inhibitory effect at P2Y1 receptor, in words (human P2Y1 receptor; 100 nM MRS2365): did not exert an inhibitory effect; IC50 ([1]; 96-well plate): 1.09 ± 0.16 µM
0.19 ± 0.1 µM	24.8 ± 2.09	–	Nc1ncnc2c1ncn2[C@@H]1O[C@H](COP(=O)(O)OP(=O)(O)O)[C@@H](O)[C@H]1O [ADP, Adenosine 5′-diphosphate, reference compound]	fold higher potency of ADP than 2-MeSADP in competing with [3H]ADP (rhP2Y12 receptor [2]): 90 fold; EC50 ([1]; Homo sapiens, Platelet, 96-well plate, read-out: EC50 of ADP, concentration-dependent platelet stimulation): 4.2 µM
> 30 µM	> 30	8.04 ± 0.51	COc1cccc(-n2nc(C#N)c(Cl)cc2=O)c1 [Compound A, 4-chloro-1-(3-methoxyphenyl)-6-oxopyridazine-3-carbonitrile]	–
> 30 µM	> 30	9.49 ± 1.15	Cn1sc(=O)c2cc(S(=O)(=O)NC3CC3)ccc21 [Compound B, N-cyclopropyl-1-methyl-3-oxo-2,1-benzothiazole-5-sulfonamide]	–
> 30 µM	> 30	4.03 ± 0.95	Cn1ncc(S(=O)(=O)Cc2ccccc2)c(Br)c1=O [Compound C, 5-benzylsulfonyl-4-bromo-2-methylpyridazin-3-one]	–
> 30 µM	> 30	6.08 ± 0.11	COc1ccc(C(=O)C=CSc2nncn2C)cc1 [Compound D, 1-(4-methoxyphenyl)-3-[(4-methyl-1,2,4-triazol-3-yl)sulfanyl]prop-2-en-1-one]	–
8.3 µM and 8.33 µM	15.5	6.21 ± 0.71	CN(C)c1ccc(C(c2cc3c(cc2O)OCO3)N2CCOCC2)cc1 (stereo not shown) [Compound E, 6-[(4-dimethylamino-phenyl)-morpholin-4-yl-methyl]-benzo[1,3]dioxol-5-ol]	inhibitory effect at P2Y1 receptor, in words (human P2Y1 receptor; 100 nM MRS2365): did not exert an inhibitory effect; fold higher potency vs [3H]ADP than vs [3H]2-MeSADP (rhP2Y12 receptor [2]): 1.9 fold; inhibition of [3H]2-MeS-ADP binding to rhP2Y13, in words (rhP2Y13 receptor; up to 100 μM): did not inhibit; effect of pre-incubation / time on inhibition of ADP-induced platelet aggregation, in words [1]: did not increase the potency
> 30 µM	> 30	9.35 ± 2.19	N#Cc1nccnc1S(=O)(=O)c1cccs1 [Compound F, 3-thiophen-2-ylsulfonylpyrazine-2-carbonitrile]	inhibition of [3H]ADP binding to rhP2Y12, in words (rhP2Y12 receptor [2]): slightly inhibited; inhibition of [3H]-2-MeSADP binding to rhP2Y12, in words (rhP2Y12 receptor [3]): slightly inhibited
–	–	–	CNc1ncnc2c1ncn2[C@H]1C[C@H](OP(=O)(O)O)[C@@H](COP(=O)(O)O)O1 [MRS2179, reference compound]	IC50 (human P2Y1 receptor; 100 nM MRS2365, read-out: IC50, block of MRS2365 action at P2Y1 receptor): 0.66 µM; IC50 ([1]; 96-well plate): 1.1 ± 0.01 µM
–	–	–	Cc1nc(N=Nc2cc([N+](=O)[O-])ccc2Cl)c(COP(=O)(O)O)c(C=O)c1O [MRS2211]	IC50 (rhP2Y13 receptor; 1 nM [3H]2-MeSADP, read-out: IC50, inhibition of [3H]2-MeS-ADP binding to rhP2Y13): 9.4 µM
–	–	–	CSc1nc(N)c2ncn([C@H]3[C@H](O)[C@H](O)[C@]4(COP(=O)(O)OP(=O)(O)O)C[C@H]34)c2n1 [MRS2365]	EC50 (human P2Y1 receptor; Ca2+ mobilization, NIH3T3-P2Y1 + Gq cells, read-out: EC50 for P2Y1 receptor activation): 0.03 µM
–	–	–	Nc1ncnc2c1ncn2[C@@H]1O[C@H](COP(=O)(O)OP(=O)(O)O)[C@@H](O)[C@H]1O [[^3H]ADP, reference compound]	Kd (rhP2Y12 receptor [2]; [3H]ADP saturation binding, read-out: Kd of radioligand at rhP2Y12 (saturation, Scatchard)): 0.0097 µM

Compound	IC50 (rhP2Y12 receptor [2]; read-out: IC50 vs. [3H]ADP)	IC50 (rhP2Y12 receptor [3]; [5]) [µM]	IC50 [1, 6] [µM]	also measured
Nc1ncnc2c1ncn2[C@@H]1O[C@H](COP(=O)(O)OP(=O)(O)OP(=O)(O)O)[C@@H](O)[C@H]1O [ATP, Adenosine 5′-triphosphate, reference compound]	–	–	2.14 ± 0.51	–
CSc1nc(N)c2ncn([C@@H]3O[C@H](COP(=O)(O)OP(=O)(O)O)[C@@H](O)[C@H]3O)c2n1 [Compound 2-MeSADP, reference compound]	17.2 ± 4.62 µM	0.12 ± 0.02	–	–
CCCSc1nc(N[C@@H]2C[C@H]2c2ccc(F)c(F)c2)c2nnn([C@@H]3C[C@H](OCCO)[C@@H](O)[C@H]3O)c2n1 [Ticagrelor, reference compound]	–	–	0.32 ± 0.02	inhibitory effect at P2Y1 receptor, in words (human P2Y1 receptor; 100 nM MRS2365): did not exert an inhibitory effect; fold lower potency vs [3H]ADP than vs [3H]2-MeSADP (rhP2Y12 receptor [2]): 210 fold; IC50 (rhP2Y12 receptor [2]; IC50 vs. [3H]ADP): 8.4 ± 3.05 µM; selectivity, rhP2Y13 in comparison to rhP2Y12 (rhP2Y13 receptor; [3H]2-MeS-ADP binding): > 1000 fold; effect of pre-incubation / time on inhibition of ADP-induced platelet aggregation, in words [1]: time-dependent manner; IC50 (rhP2Y12 receptor [3]; IC50 vs. [3H]-2-MeSADP): 0.04 ± 0.02 µM; shortness of breath (dyspnea) incidence [4]: 14%
